Laboratory results from patent US12077503B2, “Substituted cyclic amides and their use as herbicides” (FMC CORPORATION, priority 2015, dated 2024).
Read-outs that look alike come from different tables or passages of the source.

How the values were obtained:
Format in all cases: in vivo
[1] = system: sedge, umbrella (small-flower umbrella sedge, Cyperus difformis); assay: Test B flooded paddy test; conditions: Cyperus difformis, 250 g ai/ha, Flood, read-out: Sedge, Umbrella plant response rating
Summary of the method: (§1)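 Percent control, visually estimated after 13–15 d in the greenhouse on a 0–100 basis, compares treated pots with untreated ones; compound was put into paddy water 3 cm above the soil when plants had two leaves.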

rice (Oryra sativa) = assay: Test B flooded paddy test; conditions: Oryza sativa, 250 g ai/ha, Flood, read-out: Rice plant response rating
Summary of the method: as §1

[2] = system: barnyardgrass (Echinochloa crus-galli); assay: Test B flooded paddy test; conditions: Echinochloa crus-galli, 250 g ai/ha, Flood, read-out: Barnyardgrass plant response rating
Summary of the method: as §1

[3] = system: ducksalad (Heteranthera limosa); assay: Test B flooded paddy test; conditions: Heteranthera limosa, 250 g ai/ha, Flood, read-out: Ducksalad plant response rating
Summary of the method: as §1

[4] = system: giant foxtail (Setaria faberii); assay: Test A preemergence; conditions: Setaria faberi, pre-emergence, 240 h; for pest or weed control at 125 g/ha: 125 g ai/ha; for pest or weed control at 500 g/ha: 500 g ai/ha
Summary of the method: (§2)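 Ratings of 0 (no effect) to 100 (complete control) come from visual comparison with untreated controls roughly 10 d after treatment. Test chemicals, formulated in a non-phytotoxic solvent mixture with surfactant, were applied either as a preemergence directed soil spray on seeded soil or postemergence to one- to two-leaf plants 2 to 10 cm tall.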

[5] = system: ryegrass, Italian (Italian ryegrass, Lolium multiflorum); assay: Test A preemergence; conditions: Lolium multiflorum, pre-emergence, 240 h; for pest or weed control at 125 g/ha: 125 g ai/ha, 0 to 100 scale where 0 is no effect and 100 is complete control; for pest or weed control at 500 g/ha: 500 g ai/ha
Summary of the method: as §2

[6] = system: barnyardgrass (Echinochloa crus-galli); assay: Test A preemergence; conditions: Echinochloa crus-galli, pre-emergence, 240 h; for pest or weed control at 125 g/ha: 125 g ai/ha; for pest or weed control at 500 g/ha: 500 g ai/ha
Summary of the method: as §2

[7] = system: ragweed (common ragweed, Ambrosia elatior); assay: Test A preemergence; conditions: Ambrosia artemisiifolia, pre-emergence, 240 h; for pest or weed control at 125 g/ha: 125 g ai/ha, 0 to 100 scale where 0 is no effect and 100 is complete control; for pest or weed control at 500 g/ha: 500 g ai/ha
Summary of the method: as §2

[8] = system: pigweed (Amaranthus retroflexus); assay: Test A preemergence; conditions: Amaranthus retroflexus, pre-emergence, 240 h; for pest or weed control at 125 g/ha: 125 g ai/ha, 0 to 100 scale where 0 is no effect and 100 is complete control; for pest or weed control at 500 g/ha: 500 g ai/ha
Kochia (Kochia scoparia) = assay: Test A preemergence; conditions: Bassia scoparia, pre-emergence, 240 h; for pest or weed control at 125 g/ha: 125 g ai/ha, 0 to 100 scale where 0 is no effect and 100 is complete control; for pest or weed control at 500 g/ha: 500 g ai/ha
Summary of the method: as §2

[9] = system: ryegrass, Italian (Italian ryegrass, Lolium multiflorum); assay: Test A postemergence; conditions: Lolium multiflorum, post-emergence, 240 h, postemergence; for pest or weed control at 125 g/ha: 125 g ai/ha
Summary of the method: as §2

corn (Zea mays) = assay: Test A postemergence; conditions: Zea mays, post-emergence, 240 h, postemergence; for plant injury at 125 g/ha: 125 g ai/ha
Summary of the method: as §2

[10] = system: ragweed (common ragweed, Ambrosia elatior); assay: Test A postemergence; conditions: Ambrosia artemisiifolia, post-emergence, 240 h, postemergence; for pest or weed control at 125 g/ha: 125 g ai/ha
Summary of the method: as §2

[11] = system: pigweed (Amaranthus retroflexus); assay: Test A postemergence; conditions: Amaranthus retroflexus, post-emergence, 240 h, postemergence; for pest or weed control at 125 g/ha: 125 g ai/ha
Summary of the method: as §2

[12] = system: blackgrass (Alopecurus myosuroides); assay: Test A postemergence; conditions: Alopecurus myosuroides, post-emergence, 240 h, postemergence; for pest or weed control at 125 g/ha: 125 g ai/ha
Summary of the method: as §2

[13] = 0 to 100 scale where 0 is no effect and 100 is complete control
[14] = scale of 0 to 100 where 0 is no effect and 100 is complete control

For CN1CC(c2ccccc2OC(F)(F)C(F)F)C(C(=O)Nc2cccc(F)c2F)C1=O (centres unmarked) [Compound 1056], the pest or weed control at 250 g/ha [1, 13] was 0%, the pest or weed control at 250 g/ha (rice (Oryra sativa); [13]) was 20% and the pest or weed control at 250 g/ha [2, 13] was 0%. The pest or weed control at 250 g/ha [3, 13] was 0%, the pest or weed control at 125 g/ha ([4]; Preemergence, visual injury rating after approximately 10 d, read-out: Foxtail, Giant plant response rating (0 to 100 scale, 0 is no effect, 100 is complete control)) was 60% and the pest or weed control at 500 g/ha ([4]; preemergence, visual injury rating about 10 d after treatment, 0 to 100 scale (0 no effect, 100 complete control), read-out: Foxtail, Giant plant response rating) was 90%. For the same compound, the pest or weed control at 125 g/ha ([5]; preemergence, approx. 10 d, read-out: Ryegrass, Italian plant response rating) was 0%, the pest or weed control at 500 g/ha ([5]; preemergence, visual injury rating about 10 d after treatment, 0 to 100 scale (0 no effect, 100 complete control), read-out: Ryegrass, Italian plant response rating) was 0% and the pest or weed control at 125 g/ha ([6]; Preemergence, visual injury rating after approximately 10 d, read-out: Barnyardgrass plant response rating (0 to 100 scale, 0 is no effect, 100 is complete control)) was 90%. The pest or weed control at 500 g/ha ([6]; preemergence, visual injury rating about 10 d after treatment, 0 to 100 scale (0 no effect, 100 complete control), read-out: Barnyardgrass plant response rating) was 90%, the pest or weed control at 125 g/ha ([7]; preemergence, approx. 10 d, read-out: Ragweed plant response rating) was 0% and the pest or weed control at 500 g/ha ([7]; preemergence, visual injury rating about 10 d after treatment, 0 to 100 scale (0 no effect, 100 complete control), read-out: Ragweed plant response rating) was 0%. For the same compound, the pest or weed control at 125 g/ha ([8]; preemergence, approx. 10 d, read-out: Pigweed plant response rating) was 0%, the pest or weed control at 500 g/ha ([8]; preemergence, visual injury rating about 10 d after treatment, 0 to 100 scale (0 no effect, 100 complete control), read-out: Pigweed plant response rating) was 0% and the pest or weed control at 125 g/ha (Kochia (Kochia scoparia); preemergence, approx. 10 d, read-out: Kochia plant response rating) was 0%. For the same compound, the pest or weed control at 500 g/ha (Kochia (Kochia scoparia); preemergence, visual injury rating about 10 d after treatment, 0 to 100 scale (0 no effect, 100 complete control), read-out: Kochia plant response rating) was 0%, the pest or weed control at 125 g/ha ([9]; visual injury on 0 to 100 scale (0 no effect, 100 complete control), approx. 10 d, read-out: Ryegrass, Italian plant response rating) was 0% and the pest or weed control at 500 g/ha ([9]; 500 g ai/ha, 0 to 100 scale, 0 is no effect, 100 is complete control, read-out: Ryegrass, Italian plant response rating) was 0%. It also gave a plant injury at 125 g/ha (corn (Zea mays); visual injury on 0 to 100 scale (0 no effect, 100 complete control), approx. 10 d, read-out: Corn plant response rating) of 0%, a plant injury at 500 g/ha (corn (Zea mays); 500 g ai/ha, 0 to 100 scale, 0 is no effect, 100 is complete control, read-out: Corn plant response rating) of 0% and a pest or weed control at 125 g/ha ([10]; visual injury on 0 to 100 scale (0 no effect, 100 complete control), approx. 10 d, read-out: Ragweed plant response rating) of 0%. The pest or weed control at 500 g/ha ([10]; 500 g ai/ha, 0 to 100 scale, 0 is no effect, 100 is complete control, read-out: Ragweed plant response rating) was 0%, the pest or weed control at 125 g/ha ([11]; visual injury on 0 to 100 scale (0 no effect, 100 complete control), approx. 10 d, read-out: Pigweed plant response rating) was 0% and the pest or weed control at 500 g/ha ([11]; 500 g ai/ha, 0 to 100 scale, 0 is no effect, 100 is complete control, read-out: Pigweed plant response rating) was 0%. It also gave a pest or weed control at 125 g/ha ([12]; visual injury on 0 to 100 scale (0 no effect, 100 complete control), approx. 10 d, read-out: Blackgrass plant response rating) of 0% and a pest or weed control at 500 g/ha ([12]; 500 g ai/ha, 0 to 100 scale, 0 is no effect, 100 is complete control, read-out: Blackgrass plant response rating) of 0%.
Compound CN1C[C@H](c2cc(F)c(C(F)(F)F)c(F)c2)[C@@H](C(=O)Nc2cccc(F)c2F)C1=O [Compound 898] has a pest or weed control at 250 g/ha [1, 14] of 0%, a pest or weed control at 250 g/ha (rice (Oryra sativa); [14]) of 0% and a pest or weed control at 250 g/ha [2, 14] of 55%. For the same compound, the pest or weed control at 250 g/ha [3, 14] was 70%, the pest or weed control at 125 g/ha ([4]; preemergence, 0 to 100 scale where 0 is no effect and 100 is complete control, read-out: Foxtail, Giant plant response rating) was 90% and the pest or weed control at 500 g/ha ([4]; Preemergence, visual injury vs untreated controls after approximately 10 d, read-out: Foxtail, Giant plant response rating (0 to 100 scale where 0 is no effect and 100 is complete control)) was 90%. The pest or weed control at 125 g/ha ([5]; preemergence, read-out: Ryegrass, Italian plant response rating) was 40%, the pest or weed control at 500 g/ha ([5]; Preemergence, visual injury vs untreated controls after approximately 10 d, read-out: Ryegrass, Italian plant response rating (0 to 100 scale where 0 is no effect and 100 is complete control)) was 70% and the pest or weed control at 125 g/ha ([6]; preemergence, 0 to 100 scale where 0 is no effect and 100 is complete control, read-out: Barnyardgrass plant response rating) was 90%. It also gave a pest or weed control at 500 g/ha ([6]; Preemergence, visual injury vs untreated controls after approximately 10 d, read-out: Barnyardgrass plant response rating (0 to 100 scale where 0 is no effect and 100 is complete control)) of 90%, a pest or weed control at 125 g/ha ([7]; preemergence, read-out: Ragweed plant response rating) of 60% and a pest or weed control at 500 g/ha ([7]; Preemergence, visual injury vs untreated controls after approximately 10 d, read-out: Ragweed plant response rating (0 to 100 scale where 0 is no effect and 100 is complete control)) of 60%. For the same compound, the pest or weed control at 125 g/ha ([8]; preemergence, read-out: Pigweed plant response rating) was 60%, the pest or weed control at 500 g/ha ([8]; Preemergence, visual injury vs untreated controls after approximately 10 d, read-out: Pigweed plant response rating (0 to 100 scale where 0 is no effect and 100 is complete control)) was 80% and the pest or weed control at 125 g/ha (Kochia (Kochia scoparia); preemergence, read-out: Kochia plant response rating) was 70%. For the same compound, the pest or weed control at 500 g/ha (Kochia (Kochia scoparia); Preemergence, visual injury vs untreated controls after approximately 10 d, read-out: Kochia plant response rating (0 to 100 scale where 0 is no effect and 100 is complete control)) was 90%, the pest or weed control at 125 g/ha ([9]; visual injury rating after approximately 10 d, read-out: Ryegrass, Italian plant response rating (0 to 100 scale, 0 no effect, 100 complete control)) was 50% and the plant injury at 125 g/ha (corn (Zea mays); visual injury rating after approximately 10 d, read-out: Corn plant response rating (0 to 100 scale, 0 no effect, 100 complete control)) was 70%. It also gave a pest or weed control at 125 g/ha ([10]; visual injury rating after approximately 10 d, read-out: Ragweed plant response rating (0 to 100 scale, 0 no effect, 100 complete control)) of 0%, a pest or weed control at 125 g/ha ([11]; visual injury rating after approximately 10 d, read-out: Pigweed plant response rating (0 to 100 scale, 0 no effect, 100 complete control)) of 40% and a pest or weed control at 125 g/ha ([12]; visual injury rating after approximately 10 d, read-out: Blackgrass plant response rating (0 to 100 scale, 0 no effect, 100 complete control)) of 50%.
